# Assay results taken from patent US20060083657A1, “Indicator device having an active agent encapsulated in an electrospun nanofiber” (STERIS Inc., priority 2004, published 2006).
# Key:
# [1] = tested on: Escherichia coli ATCC 25922; assay: Disk diffusion method, zone of inhibition on lawn plates; format: cell-based; settings: polymer mat disk, 37° C., 7 days
# Experimental: (§1) The effectiveness of the CHG polymer mat was investigated using a disk diffusion method on Staphylococcus aureus ATCC 6538 and Escherichia coli ATCC 25922 lawn plates. The plates were prepared for each organism by dispensing and spreading 0.1 mL of the bacterium over the entire surface of prepared tryptic soy agar plates to create a “lawn.” Concentrations of chlorhexidine gluconate (CHG) at 0.25%, 0.5%, and 1.0% were electrospun with Tecoflex to produce an antimicrobial polymer mat. The polymer mats were cut into two 0.5-1.0 inch diameter disks for each CHG concentration. One disk per plate was placed into the center of the bacterial plate The plates were then incubated at 37° C. for 7 days to determine the zone of inhibition or antimicrobial coverage around the disk (measured in millimeters diameter), which simulates the persistence of an antimicrobial dressing to inactivate resident microorganisms on the skin. For S. aureus, 0.25%, 0.50%, and 1.0% CHG was effective showing mean zones of 20 mm, 25 mm, and 25 mm zones, respectively at 7 days, while at the same concentrations E. coli mean zones were 11 mm, 23 mm, and 28 mm.
# [2] = tested on: Staphylococcus aureus ATCC 6538; assay: as above; format: cell-based; settings: polymer mat disk, 37° C., 7 days
# Experimental: as §1
# [3] = 0.25% CHG electrospun with Tecoflex
# [4] = 0.50% CHG electrospun with Tecoflex
# [5] = 1.0% CHG electrospun with Tecoflex
structure (smiles),measurement,setting,value
"N=C(NCCCCCCNC(=N)NC(=N)Nc1ccc(Cl)cc1)NC(=N)Nc1ccc(Cl)cc1.O=C(O)[C@H](O)[C@@H](O)[C@H](O)[C@H](O)CO.O=C(O)[C@H](O)[C@@H](O)[C@H](O)[C@H](O)CO [CHG, Chlorhexidine Gluconate]",mean zone of inhibition (diameter),[1]; [3],11 mm
same,mean zone of inhibition (diameter),[1]; [4],23 mm
same,mean zone of inhibition (diameter),[1]; [5],28 mm
same,mean zone of inhibition (diameter),[2]; [3],20 mm
same,mean zone of inhibition (diameter),[2]; [4],25 mm
same,mean zone of inhibition (diameter),[2]; [5],25 mm
